For one experiment, the target named is T1, hM4 receptors (Homo sapiens, UniProt P08173).
T1 construct: expressed in transfected cells; host or cells: CHO cells
T1 sequence (P08173 1-479): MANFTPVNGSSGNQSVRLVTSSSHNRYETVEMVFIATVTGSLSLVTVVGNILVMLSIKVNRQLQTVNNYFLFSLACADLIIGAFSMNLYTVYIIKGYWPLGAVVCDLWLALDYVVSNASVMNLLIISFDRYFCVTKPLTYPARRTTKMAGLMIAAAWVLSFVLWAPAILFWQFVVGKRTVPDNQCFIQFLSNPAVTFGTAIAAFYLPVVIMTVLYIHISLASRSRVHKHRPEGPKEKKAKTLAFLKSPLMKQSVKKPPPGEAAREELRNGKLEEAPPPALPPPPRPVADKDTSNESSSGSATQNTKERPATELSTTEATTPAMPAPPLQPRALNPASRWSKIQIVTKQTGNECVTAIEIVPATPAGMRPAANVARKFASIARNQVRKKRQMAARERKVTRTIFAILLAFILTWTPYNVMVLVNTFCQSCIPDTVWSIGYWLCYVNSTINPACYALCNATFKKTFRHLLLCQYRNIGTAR
In words: Human M4 PAM PERK assay (CHO cells, TR-FRET, with EC20 acetylcholine). The experiment is classed as cell-based. In short, it runs like this: (§1)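 CHO cells expressing human or rat M4, serum-starved 4 h, then given compound (10-point, 10 μM top, ½-log) with EC20 acetylcholine (10 nM final) for 5 min at 37 °C. Lysates assayed for phospho-ERK by TR-FRET after 2 h detection at RT.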

Another experiment concerns the target T2, human M4 receptor (Homo sapiens, UniProt P08173).
T2 construct: expressed in transfected cells; host or cells: CHO-K1 cells (membranes)
T2 sequence (P08173 1-479): T1 sequence (P08173 1-479)
In words: M4 GTPγS PAM assay (CHO-K1 membranes, 35S-GTP binding, with EC20 acetylcholine). The experiment is classed as biochemical. As to conditions: with EC20 acetylcholine (40 nM). The method, then: The M4 GTPγS PAM method was used. Membranes were prepared for GTPgS binding assays from CHO-K1 cells stably expressing human M4 receptor. Briefly, cells were grown in 5-layer cell culture flasks. Cells were washed with 50 mL of PBS and then dissociated with 0.05% trypsin. Dissociated cells were then collected by centrifugation at 650×g for 8 minutes at 4° C. Pellets were washed again in PBS by centrifugation and resuspended in 30 mL of 20 mM HEPES, 10 mM EDTA, pH 7.4. After sitting on ice for 30 min, membranes were collected by centrifugation at 50000×g for 15′ at 4° C., resuspended in 30 mL of 20 mM HEPES, 0.1 mM EDTA, pH 7.4 and collected again by centrifugation. Pellets were then washed twice by centrifugation in 30 mL of 20 mM HEPES, pH 7.4, and stored at −80° C. until the day of the assay. On the day of the assay, pellets were thawed on ice and resuspended in 1 mL of 20 mM HEPES, pH 7.4, 10 mM MgCl2, 100 mM NaCl using dounce homogenization. Membrane protein concentration is determined by BCA protein assay (Promega, Madison, WI) according to Promega guidelines.
On the day of the assay, serial dilutions of test PAM compounds were brought up in assay buffer (20 mM HEPES, 10 mM MgCl2, 100 mM NaCl) at 4X final assay concentration. […] of membrane homogenates (containing […] of membrane protein) were prepared in assay buffer supplemented with GDP at […] final assay concentration (final assay concentration of GDP is 5 μM for M2 and 0.1 μM for M4) and dispensed into 96 well polypropylene, U-bottom Greiner plates. 25 ml of vehicle or test PAM compound at 4× of final assay concentration diluted in the assay buffer were added to membrane and plates are incubated for 10-15 minutes at room temperature with gentle shaking. Then, […] of EC20 acetylcholine in assay buffer at 4× final assay concentration was added to assay plates (EC20 final assay concentrations was 40 nM for human M4).
Plates were then incubated, with shaking, for an additional 10-15 minutes. […] of 0.4 nM 35S-GTP (Perkin Elmer, Waltham, MA) in assay buffer was added to assay mixtures. The binding reaction is left on the shaker for 1 hour at room temperature. Membranes in assay reactions were then transferred to GF/C filter plates (Unifilter, Perkin Elmer) and washed three times using a FilterMate Harvester (Perkin Elmer) with cold assay buffer containing no GDP. Filter plates were then dried at 40° C. overnight followed by the addition of […] of Beta Plate Scintillation liquid. Plates are top and bottom sealed before being read on TopCount scintillation counter (Perkin Elmer, Waltham, MA).

For the next experiment, the target named is T3, rM4 receptors (Rattus norvegicus, UniProt P08485).
T3 construct: expressed in transfected cells; host or cells: CHO cells
T3 sequence (P08485 1-478): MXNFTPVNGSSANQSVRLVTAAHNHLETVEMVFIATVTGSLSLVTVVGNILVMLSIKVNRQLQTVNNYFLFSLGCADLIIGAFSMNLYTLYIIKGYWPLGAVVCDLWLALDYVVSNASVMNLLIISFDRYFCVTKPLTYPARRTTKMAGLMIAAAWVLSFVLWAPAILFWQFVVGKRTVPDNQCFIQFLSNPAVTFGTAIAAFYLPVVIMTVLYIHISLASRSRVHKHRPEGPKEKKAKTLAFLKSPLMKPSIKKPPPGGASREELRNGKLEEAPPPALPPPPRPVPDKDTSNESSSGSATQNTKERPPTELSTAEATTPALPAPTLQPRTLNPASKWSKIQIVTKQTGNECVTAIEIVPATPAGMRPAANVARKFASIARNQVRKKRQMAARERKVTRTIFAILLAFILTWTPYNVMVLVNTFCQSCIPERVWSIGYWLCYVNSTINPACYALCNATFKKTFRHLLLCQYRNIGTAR
The experiment can be described thus: Rat M4 PAM PERK assay (CHO cells, TR-FRET, with EC20 acetylcholine). The experiment is classed as cell-based. In short, it runs like this: as §1

As for `Cc1cc(=O)n(C)c2c1CN(C(=O)CC1CN(c3ccc(C#N)c(C(F)(F)F)c3)C1)C2` [Compound I-27], the EC50 on hM4 receptors, on human M4 receptor and on rM4 receptors was 50 to 200 nM throughout.

On to `Cc1cc(=O)n(C)c2c1CN(C(=O)CC1CN(c3nc(C(F)(F)F)ns3)C1)C2` [Compound I-28], for which the EC50 at hM4 receptors, at human M4 receptor and at rM4 receptors was 200 to 1000 nM in each case.

With `Cc1cc(=O)n(C)c2c1CN(C(=O)CC1CN(c3ncc(C(F)(F)F)s3)C1)C2` [Compound I-29], the EC50 at hM4 receptors fell in the range of 50 to 200 nM; on human M4 receptor, 50 to 200 nM; at rM4 receptors it was 200 to 1000 nM.

As to `Cc1cc(=O)n(C)c2c1CN(C(=O)CC1CN(c3cnnc(C(F)(F)F)c3)C1)C2` [Compound I-30], the results for the EC50 on hM4 receptors, at human M4 receptor and on rM4 receptors were 50 to 200 nM, 200 to 1000 nM and 50 to 200 nM, respectively.

Turning to `Cc1cc(=O)n(C)c2c1CN(C(=O)CC1CN(c3nc(C(F)(F)F)cs3)C1)C2` [Compound I-31], the EC50 on hM4 receptors was 50 to 200 nM; on human M4 receptor, 200 to 1000 nM; on rM4 receptors it was 50 to 200 nM.

As for `Cc1cc(=O)n(C)c2c1CN(C(=O)CC1CN(c3cccc(F)c3C)C1)C2` [Compound I-33], the EC50 on hM4 receptors was 50 to 200 nM; at human M4 receptor, 200 to 1000 nM; at rM4 receptors, 200 to 1000 nM.

For `Cc1cc(=O)n(C)c2c1CN(C(=O)CC1CN(c3cnn(C(F)(F)F)c3)C1)C2` [Compound I-34], the half-maximal effective concentration (EC50) on hM4 receptors, on human M4 receptor and at rM4 receptors was greater than 1000 nM throughout.

Turning to `Cc1cc(=O)n(C)c2c1CN(C(=O)CC1CN(c3nc(C4CC4)ns3)C1)C2` [Compound I-35], the EC50 on hM4 receptors, at human M4 receptor and on rM4 receptors was 50 to 200 nM each time.

As to `Cc1cc(=O)n(C)c2c1CN(C(=O)CC1CN(c3cc(F)cc(F)c3)C1)C2` [Compound I-36], the figures for the EC50 at hM4 receptors, on human M4 receptor and on rM4 receptors were less than 50 nM, less than 50 nM and 200 to 1000 nM, respectively.

In the case of `Cc1cc(=O)n(C)c2c1CN(C(=O)CC1CN(c3cnn(C4CC4)c3)C1)C2` [Compound I-37], the EC50 on hM4 receptors is 200 to 1000 nM; on human M4 receptor, 200 to 1000 nM; on rM4 receptors it was greater than 1000 nM.

For the compound `COc1cc(N2CC(CC(=O)N3Cc4c(C)cc(=O)n(C)c4C3)C2)cc(C(F)(F)F)n1` [Compound I-39, 6-(2-(1-(2-Methoxy-6-(trifluoromethyl)pyridin-4-yl)azetidin-3-yl)acetyl)-1,4-dimethyl-1,5,6,7-tetrahydro-2H-pyrrolo[3,4-b]pyridin-2-one], the EC50 on hM4 receptors was 50 to 200 nM; on human M4 receptor it was 200 to 1000 nM; at rM4 receptors, 200 to 1000 nM.

`Cc1c2c(n(C)c(=O)c1C)CN(C(=O)CC1CN(c3ccc(C(F)(F)F)cc3)C1)C2` [Compound I-43]: the EC50 is 50 to 200 nM on hM4 receptors, less than 50 nM at human M4 receptor and 50 to 200 nM on rM4 receptors.

On to `Cc1c2c(n(C)c(=O)c1C)CN(C(=O)CC1CN(c3ncns3)C1)C2` [Compound I-44], for which the values for the EC50 on hM4 receptors, at human M4 receptor and at rM4 receptors were less than 50 nM, 50 to 200 nM and 200 to 1000 nM, respectively.

Take `Cc1c2c(n(C)c(=O)c1C)CN(C(=O)CC1CN(c3ccc(C#N)cc3)C1)C2` [Compound I-45]: the EC50 at hM4 receptors is less than 50 nM; at human M4 receptor it was less than 50 nM; on rM4 receptors, 50 to 200 nM.

On to `Cc1c2c(n(C)c(=O)c1C)CN(C(=O)CC1CN(c3ccc(F)c(C4CC4)c3)C1)C2` [Compound I-55], for which the EC50 on hM4 receptors lay within 200 to 1000 nM; at human M4 receptor, 50 to 200 nM; at rM4 receptors, 50 to 200 nM.

On to `Cc1c2c(n(C)c(=O)c1C)CN(C(=O)CC1CN(c3cc(F)cc(F)c3)C1)C2` [Compound I-56], for which the EC50 was less than 50 nM at hM4 receptors, 50 to 200 nM at human M4 receptor and 50 to 200 nM on rM4 receptors.

For `Cc1c2c(n(C)c(=O)c1C)CN(C(=O)CC1CN(c3cnc(C4CC4)cn3)C1)C2` [Compound I-58], the EC50 at hM4 receptors, at human M4 receptor and on rM4 receptors was 50 to 200 nM each time.

Consider `Cc1c2c(n(C)c(=O)c1C)CN(C(=O)CC1CN(c3ccc(C(C)(C)O)c(F)c3)C1)C2` [Compound I-59], for which the EC50 at hM4 receptors is less than 50 nM; on human M4 receptor, less than 50 nM; on rM4 receptors, 50 to 200 nM.

Regarding `Cc1c2c(n(C)c(=O)c1C)CN(C(=O)CC1CN(c3ccc(F)c(OC4CC4)c3)C1)C2` [Compound I-63, 6-(2-(1-(3-cyclopropoxy-4-fluorophenyl)azetidin-3-yl)acetyl)-1,3,4-trimethyl-1,5,6,7-tetrahydro-2H-pyrrolo[3,4-b]pyridin-2-one], the EC50 is 200 to 1000 nM at hM4 receptors, less than 50 nM at human M4 receptor and 200 to 1000 nM on rM4 receptors.

As for `Cc1c2c(n(C)c(=O)c1C)CN(C(=O)CC1CN(c3nc(C(F)(F)F)c(C4CC4)s3)C1)C2` [Compound I-64, 6-(2-(1-(5-Cyclopropyl-4-(trifluoromethyl)thiazol-2-yl)azetidin-3-yl)acetyl)-1,3,4-trimethyl-1,5,6,7-tetrahydro-2H-pyrrolo[3,4-b]pyridin-2-one], the results for the EC50 on hM4 receptors, at human M4 receptor and on rM4 receptors were 50 to 200 nM, 50 to 200 nM and 200 to 1000 nM, respectively.

For `Cc1c2c(n(C)c(=O)c1C)CN(C(=O)CC1CN(c3nc(C4CC4)c(C(F)(F)F)s3)C1)C2` [Compound I-65, 6-(2-(1-(4-cyclopropyl-5-(trifluoromethyl)thiazol-2-yl)azetidin-3-yl)acetyl)-1,3,4-trimethyl-1,5,6,7-tetrahydro-2H-pyrrolo[3,4-b]pyridin-2-one], the EC50 is 200 to 1000 nM on hM4 receptors, less than 50 nM at human M4 receptor and 200 to 1000 nM on rM4 receptors.

In the case of `Cc1c2c(n(C)c(=O)c1Cl)CN(C(=O)CC1CN(c3ccnc(C(F)(F)F)c3)C1)C2` [Compound I-66, 3-Chloro-1,4-dimethyl-6-(2-(1-(2-(trifluoromethyl)pyridin-4-yl)azetidin-3-yl)acetyl)-1,5,6,7-tetrahydro-2H-pyrrolo[3,4-b]pyridin-2-one], the EC50 at hM4 receptors was less than 50 nM; on human M4 receptor it was less than 50 nM; on rM4 receptors it was 50 to 200 nM.

`Cc1c2c(n(C)c(=O)c1Cl)CN(C(=O)CC1CN(c3ccc(C(F)(F)F)cc3)C1)C2` [Compound I-68]: the EC50 at hM4 receptors, at human M4 receptor and at rM4 receptors was less than 50 nM in each case.

Take `Cc1c2c(n(C)c(=O)c1Cl)CN(C(=O)CC1CN(c3ccc(C(F)(F)F)nc3)C1)C2` [Compound I-78]: the half-maximal effective concentration (EC50) is less than 50 nM at hM4 receptors, 50 to 200 nM at human M4 receptor and 50 to 200 nM at rM4 receptors.

The values are drawn from patent publication US20260209220A1, “SUBSTITUTED TETRAHYDROPYRROLO-PYRIDINONE COMPOUNDS AND THEIR USE IN TREATING MEDICAL CONDITIONS” (Karuna Therapeutics, Inc., priority 2022, published 2026).
